From publication doi:10.1101/2024.12.05.627101v1 (biorxiv, 2024)
Values belong to the molecule of their own block, whether it stands above or below them.

Experiments:
human mGlu5 (hmGlu5) [1] = molecular target: T1, human mGlu5 (hmGlu5) (Homo sapiens, UniProt P41594); test: cell-based; set-up: species or system HEK293A; conditions: HEK293-A, read-out: iCa2+ human mGlu5 Emax
human mGlu5 (hmGlu5) [2] = molecular target: T1, human mGlu5 (hmGlu5); test: iCa2+ mobilisation; type: cell-based
human mGlu5 (hmGlu5) [3] = molecular target: T1, human mGlu5 (hmGlu5); test: whole-cell [3H]methoxy-PEPy inhibition binding; type: cell-based
human mGlu5 (hmGlu5) [4] = molecular target: T1, human mGlu5 (hmGlu5); test: whole-cell [3H]methoxy-PEPy inhibition binding; type: cell-based; remark: listed apart in the source
human mGlu5 (hmGlu5) [5] = molecular target: T1, human mGlu5 (hmGlu5); test: IP1 accumulation; type: cell-based
human mGlu5 (hmGlu5) [6] = molecular target: T1, human mGlu5 (hmGlu5); test: IP1 accumulation; type: cell-based; remark: listed apart in the source
human mGlu5 (hmGlu5) [7] = molecular target: T1, human mGlu5 (hmGlu5); test: whole-cell saturation radioligand binding; type: cell-based

T1 sequence (P41594 21-1180 isoform P41594-2): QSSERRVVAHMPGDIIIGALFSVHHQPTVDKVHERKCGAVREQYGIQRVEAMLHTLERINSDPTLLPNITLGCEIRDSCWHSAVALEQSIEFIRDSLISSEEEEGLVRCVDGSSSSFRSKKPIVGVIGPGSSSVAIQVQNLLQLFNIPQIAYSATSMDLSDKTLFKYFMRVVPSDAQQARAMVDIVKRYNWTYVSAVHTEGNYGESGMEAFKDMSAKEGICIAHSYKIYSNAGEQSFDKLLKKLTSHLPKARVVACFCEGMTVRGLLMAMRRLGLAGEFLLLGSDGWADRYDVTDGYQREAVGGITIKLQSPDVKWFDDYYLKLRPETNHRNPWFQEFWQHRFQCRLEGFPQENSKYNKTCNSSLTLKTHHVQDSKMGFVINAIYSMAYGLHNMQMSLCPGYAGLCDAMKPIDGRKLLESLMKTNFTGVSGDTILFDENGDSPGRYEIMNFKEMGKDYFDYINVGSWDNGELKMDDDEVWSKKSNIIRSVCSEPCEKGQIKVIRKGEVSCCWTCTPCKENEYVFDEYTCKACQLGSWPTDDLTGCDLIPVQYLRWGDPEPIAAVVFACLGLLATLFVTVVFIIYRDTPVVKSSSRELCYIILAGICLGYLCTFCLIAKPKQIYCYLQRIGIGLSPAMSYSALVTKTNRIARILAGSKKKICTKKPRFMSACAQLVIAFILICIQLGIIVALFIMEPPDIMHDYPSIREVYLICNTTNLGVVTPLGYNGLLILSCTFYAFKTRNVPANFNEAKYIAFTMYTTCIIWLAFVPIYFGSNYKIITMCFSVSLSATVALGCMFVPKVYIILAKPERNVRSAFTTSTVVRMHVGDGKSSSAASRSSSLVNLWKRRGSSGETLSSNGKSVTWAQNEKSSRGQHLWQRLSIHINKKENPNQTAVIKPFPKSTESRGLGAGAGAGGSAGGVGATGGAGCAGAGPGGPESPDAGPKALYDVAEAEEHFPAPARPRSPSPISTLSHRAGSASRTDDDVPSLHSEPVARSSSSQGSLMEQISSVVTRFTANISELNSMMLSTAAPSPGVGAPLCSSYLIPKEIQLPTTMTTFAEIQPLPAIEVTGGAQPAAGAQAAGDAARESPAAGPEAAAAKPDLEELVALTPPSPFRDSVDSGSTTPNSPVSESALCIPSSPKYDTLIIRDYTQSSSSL

Structure (SMILES): N[C@H](C(=O)O)c1cc(O)cc(O)c1 [DHPG, (S)-3,5-dihydroxyphenylglycine]
Emax (human mGlu5 (hmGlu5) [1]): 80.3 ± 2.5%
EC50 (human mGlu5 (hmGlu5) [2]): 1100 nM

Structure (SMILES): O=C(COCc1ccc(F)cc1)N1CCN(c2ccc(F)cc2F)CC1 [DPFE, 1-(4-(2,4-difluorophenyl)piperazin-1-yl)-2-((4-fluorobenzyl)oxy)ethanone]
Ki (human mGlu5 (hmGlu5) [3]): 7410 nM

Structure (SMILES): CCCCOc1ccc(C(=O)Nc2ccc(F)cc2F)cc1 [VU0357121, 4-butoxy-N-(2,4-difluorophenyl)benzamide]
Kd (human mGlu5 (hmGlu5) [4]): 537 nM

Structure (SMILES): COc1cncc(C#Cc2ccccn2)c1 [[3H]methoxy-PEPy]
Kd (human mGlu5 (hmGlu5) [7]): 4.57 nM

Structure (SMILES): CN1CC(=O)N=C1NC(=O)Nc1cccc(Cl)c1 [fenobam, N-(3-chlorophenyl)-3-[(2e)-1-methyl-4-oxoimidazo-lidin-2-ylidene]urea]
Kd (human mGlu5 (hmGlu5) [4]): 81.3 nM
IC50 (human mGlu5 (hmGlu5) [5]): 55 nM

Structure (SMILES): N[C@@H](CCC(=O)O)C(=O)O [glutamate]
Emax (human mGlu5 (hmGlu5) [1]): 103 ± 3.9%

Other lines, results leading:

Kd (human mGlu5 (hmGlu5) [4]): 224 nM
IC50 (human mGlu5 (hmGlu5) [5]): 115 nM
Structure (SMILES): N#Cc1cc(F)cc(C(=O)Nc2cccc(Cl)c2F)c1 [VU0366248, N-(3-chloro-2-fluorophenyl)-3-cyano-5-fluorobenzamide]

Ki (human mGlu5 (hmGlu5) [3]): 1410 nM
EC50 (human mGlu5 (hmGlu5) [6]): 661 nM
Structure (SMILES): O=C(c1ccc(F)cc1)N1CCc2nc(COc3ccccc3)oc2C1 [VU0409551, (4-fluorophenyl)(2-(phenoxymethyl)-6,7-dihydrooxazolo[5,4-c]pyridin-5(4H)-yl)methanone]

Emax (human mGlu5 (hmGlu5) [1]): 69.5 ± 4.5%
Kd (human mGlu5 (hmGlu5) [4]): 35.5 nM
EC50 (human mGlu5 (hmGlu5) [2]): 275 nM
Structure (SMILES): C[C@@H](NC(=O)c1ccc(C#Cc2cccc(F)c2)cn1)C(C)(C)O [VU0424465, (R)-5-((3-fluorophenyl)ethynyl)-N-(3-hydroxy-3-methylbutan-2-yl)picolinamide]
